Results taken from the supplement of paper PMC10307832.

Columns and labels:
Experiment in all cases: relative viability (nuclei count vs DMSO), 5 days (fraction); higher = more cells survive
Idelalisib + Navitoclax = compound: CC[C@H](Nc1ncnc2[nH]cnc12)c1nc2cccc(F)c2c(=O)n1-c1ccccc1 [Idelalisib] + CC1(C)CCC(c2ccc(Cl)cc2)=C(CN2CCN(c3ccc(C(=O)NS(=O)(=O)c4ccc(N[C@H](CCN5CCOCC5)CSc5ccccc5)c(S(=O)(=O)C(F)(F)F)c4)cc3)CC2)C1 [Navitoclax] (partner 0.5 µM)
Summary of the method: (§1)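 Relative viability was taken as the ratio of nuclei in treated wells to nuclei in vehicle wells. Lung cancer cell lines in 1536-well plates received compounds by pin tool one day after seeding, either one drug alone or a fixed anchor-drug dose plus five library-drug doses (not always all listed) in √10 steps. Nuclei were counted on 4× images after 5 days of treatment, and values are medians of duplicate plates.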

Idelalisib + Tozasertib = compound: CC[C@H](Nc1ncnc2[nH]cnc12)c1nc2cccc(F)c2c(=O)n1-c1ccccc1 [Idelalisib] + Cc1cc(Nc2cc(N3CCN(C)CC3)nc(Sc3ccc(NC(=O)C4CC4)cc3)n2)n[nH]1 [Tozasertib] (partner 0.1 µM)
Summary of the method: as §1

Idelalisib + Phenformin = compound: CC[C@H](Nc1ncnc2[nH]cnc12)c1nc2cccc(F)c2c(=O)n1-c1ccccc1 [Idelalisib] + N=C(N)NC(=N)NCCc1ccccc1 [Phenformin] (partner 250 µM)
Summary of the method: as §1

Pemetrexed + Bortezomib = compound: Nc1nc2[nH]cc(CCc3ccc(C(=O)N[C@@H](CCC(=O)O)C(=O)O)cc3)c2c(=O)[nH]1 [Pemetrexed] + CC(C)C[C@H](NC(=O)[C@H](Cc1ccccc1)NC(=O)c1cnccn1)B(O)O [Bortezomib] (partner 0.002 µM)
Summary of the method: as §1

Cell Line | relative viability (Idelalisib + Navitoclax; first compound 0.04 µM) | relative viability (Idelalisib + Navitoclax; first compound 0.1265 µM) | relative viability (Idelalisib + Navitoclax; first compound 0.4 µM) | relative viability (Idelalisib + Navitoclax; first compound 1.265 µM) | relative viability (Idelalisib + Navitoclax; first compound 4 µM) | relative viability (Idelalisib + Tozasertib; first compound 0.04 µM) | relative viability (Idelalisib + Tozasertib; first compound 0.1265 µM) | relative viability (Idelalisib + Tozasertib; first compound 0.4 µM) | relative viability (Idelalisib + Tozasertib; first compound 1.265 µM) | relative viability (Idelalisib + Tozasertib; first compound 4 µM) | relative viability (Idelalisib + Phenformin; first compound 0.04 µM) | relative viability (Idelalisib + Phenformin; first compound 0.1265 µM) | relative viability (Idelalisib + Phenformin; first compound 0.4 µM) | relative viability (Idelalisib + Phenformin; first compound 1.265 µM) | relative viability (Idelalisib + Phenformin; first compound 4 µM) | relative viability (Pemetrexed + Bortezomib; first compound 0.002 µM) | relative viability (Pemetrexed + Bortezomib; first compound 0.006325 µM) | relative viability (Pemetrexed + Bortezomib; first compound 0.02 µM) | relative viability (Pemetrexed + Bortezomib; first compound 0.06325 µM) | relative viability (Pemetrexed + Bortezomib; first compound 0.2 µM)
PC-14 | 0.987 | 1.1 | 0.953 | 1.14 | 1.02 | 0.638 | 0.603 | 0.557 | 0.6 | 0.553 | 0.746 | 0.784 | 0.516 | 0.409 | 0.669 | 0.873 | 0.85 | 0.808 | 0.544 | 0.188
RERF-LC-KJ | 0.922 | 0.951 | 0.884 | 0.792 | 0.638 | 0.539 | 0.502 | 0.47 | 0.474 | 0.449 | 0.442 | 0.438 | 0.419 | 0.44 | 0.373 | 1.13 | 1.06 | 1.13 | 1.04 | 0.82
SK-LU-1 | 0.871 | 1.05 | 0.988 | 0.683 | 0.799 | 0.294 | 0.313 | 0.337 | 0.32 | 0.327 | 0.601 | 0.57 | 0.433 | 0.55 | 0.468 | 0.949 | 1.21 | 1.3 | 1.08 | 1.31
SW 1573 | 0.859 | 0.837 | 0.994 | 0.926 | 0.791 | 0.168 | 0.181 | 0.163 | 0.201 | 0.142 | 0.383 | 0.37 | 0.336 | 0.36 | 0.336 | 1.1 | 0.881 | 1.11 | 0.896 | 1.04
